We go through ten compounds from patent US9505772B2, “Aromatic ring compound” (TAKEDA PHARMACEUTICAL COMPANY LIMITED, priority 2012, dated 2016).

Assay [1] deals with T1, human MCHR1 (Homo sapiens, UniProt Q99705).
T1 construct: expressed in transfected cells; host or cells: CHO cell clone 57 (described in WO01/82925); membrane fraction
Nature of the assay: MCH receptor 1 antagonistic activity, Ca2+ mobilization assay. The format is cell-based. The settings on record: test compound 0.1 μM; human MCHR1-expressing CHO cells (clone #4); MCH(4-19) 2 nM; read-out: Inhibition rate % (0.1 μM). The procedure: Measurement of MCH Receptor 1 Antagonistic Activity of Test Compound Using Ca^2+ Mobilization Assay
Using an expression vector plasmid introduced with human MCHR1 gene for expression in animal cells, human MCHR1 gene was introduced into CHO cells (CHO dhfr^−) by Lipofectamine LTX (Invitrogen). The cells were cultured in selection MEMα medium [445 mL of MEMα medium without nucleic acid and added with 5 mL of Penicillin-Streptomycin (Invitrogen) and 50 mL of dialyzed fetal bovine serum]. Colony 24 clones grown in the selection medium, which were human MCHR1 gene-expressing CHO cell candidates, were selected. […] In the following test, this human MCHR1-expressing CHO cell (clone #4) was used. An integrated dispensing function fluorometer (CellLux, PerkinElmer) was used for Ca^2+ mobilization assay. The CHO cells were sown in a 96 well plate (type 3904, Corning) with a black wall and clear well bottom at a density of 20000 cells/well, and cultured in an incubator for about 24 hr at 5% CO2, 37° C. The medium was removed, and the cells were washed with phosphate buffered saline (PBS). A Ca^2+ indicator dye reagent (DOJINDO LABORATORIES, Ca screening no-wash kit Fluo4) was added at 100 μL/well, and the dye was allowed to penetrate into the cell for 30 min in an incubator at 5% CO2, 37° C. The plate was set on a plate reader. First, a test compound solution diluted with an assay buffer [10 mM HEPES (pH 7.4), 1× assay buffer containing 0.1% BSA (DOJINDO LABORATORIES, attached to Ca screening no-wash kit Fluo4)] or DMSO solution was added at 50 μL/well, and then ligand MCH (4-19) peptide (final concentration 2 nM) diluted with assay buffer or DMSO was added at 50 μL/well, during which changes in intracellular fluorescence were measured at 2 second intervals. The antagonistic activity of the test compound was calculated by the following formula and shown as an inhibition rate (%) wherein the intracellular fluorescence activity resulting from the stimulation by the addition of ligand MCH (4-19) peptide was 100% and that of the well added with DMSO solution alone was 0%. inhibitory rate (%)=100−[fluorescence activity upon addition of test compound and MCH(4-19) peptide solution−fluorescence activity upon addition of DMSO solution only]/[fluorescence activity upon addition of DMSO solution and MCH(4-19) peptide solution−fluorescence activity upon addition of DMSO solution only]×100
The inhibition rates (%) of test compounds (0.1 μM) as antagonist activity measured using human MCHR1-expressing CHO cells (clone #4) are shown in the following Table 3.

For assay [2], the target named is T1, human MCHR1. The assay is described as follows: Human MCH receptor 1 (MCHR1) binding inhibitory activity, binding assay with [125I]-MCH(4-19). Conditions: test compound 0.1 μM, human MCHR1-expressing CHO cell membrane fraction, read-out: Binding inhibition rate % (0.1 μM). How it is done:
Determination of Human MCH Receptor 1 (MCHR1) Binding Inhibitory Activity of Test Compound Using Binding Assay
1. Preparation of Membrane Fraction
Using human MCHR1(=SLC-1 receptor)-expressing CHO cell clone 57 described in WO01/82925, MCHR1-expressing CHO cellular membrane fractions were prepared by the following method.
In phosphate buffered saline (pH 7.4) supplemented with 5 mM EDTA (ethylenediaminetetraacetic acid) were respectively suspended human MCHR1-expressing CHO cells (1×10^8 cells) and centrifuged. Homogenate buffer (10 mL, 10 mM NaHCO3, 5 mM EDTA, pH 7.5, 0.5 mM PMSF (phenylmethylsulfonyl fluoride), 20 mg/L leupeptin, 4 mg/L E-64, 1 mg/L pepstatin A) was added to the pellets of the cells and, using Polytron Homogenizer, the mixture was homogenated. The supernatant obtained after centrifugation at 400×g for 10 min was further centrifuged at 100,000×g for 1 hr to give precipitate of the membrane fraction. The precipitate were suspended in 2 mL of assay buffer [20 mM Tris-HCl (pH 7.5), 5 mM EDTA, 0.5 mM PMSF, 20 mg/L leupeptin, 4 mg/L E-64, 1 mg/L pepstatin A]. The membrane fractions were suspended in assay buffer to a protein concentration of 2 mg/mL, and after dispensing, preserved at −80° C. and used upon thawing each time when in use.
The MCHR1 ligand binding inhibitory activity of the test compound was determined as follows.
An MCHR1-expressing CHO cellular membrane fraction (173 μL) diluted with an assay buffer was dispensed to a 96 well polypropylene plate (3363, Corning). DMSO solution (2 μL), 33 μM cold MCH(1-19) diluted with DMSO solution (2 μL), or a test compound solution diluted with DMSO solution to various concentrations (2 μL) was added, and lastly, [^125I]-MCH(4-19) diluted with assay buffer (hereinafter, sometimes to be referred to as “hot MCH”, 25 μL) was added to each well. The mixture was reacted with stirring at room temperature for 1 hr, and the plate was set on FilterMate Harvester (PerkinElmer). Using a treating glass filter plate (GF/C, PerkinElmer) with polyethyleneimine, which had been previously set, the plate was suction-filtered and washed three times with washing buffer (50 mM Tris-HCl buffer pH 7.5). The glass filter plate was dried, MicroScinti0 (PerkinElmer) was added at 25 μL/well, and the resulting radioactivity was measured by TopCount liquid scintillation counter (PerkinElmer). The binding inhibition rate of the test compound was calculated by the following formula. Binding inhibition (%)=100−(radioactivity upon addition of test compound and hot MCH−radioactivity upon addition of cold MCH and hot MCH solution)/(radioactivity upon addition of DMSO solution and hot MCH−radioactivity upon addition of cold MCH and hot MCH solution)×100
The binding inhibition rates (%) of test compounds (0.1 μM) as measured using human MCHR1-expressing CHO cell are shown in Table 2.

T1 sequence (Q99705 whole entry): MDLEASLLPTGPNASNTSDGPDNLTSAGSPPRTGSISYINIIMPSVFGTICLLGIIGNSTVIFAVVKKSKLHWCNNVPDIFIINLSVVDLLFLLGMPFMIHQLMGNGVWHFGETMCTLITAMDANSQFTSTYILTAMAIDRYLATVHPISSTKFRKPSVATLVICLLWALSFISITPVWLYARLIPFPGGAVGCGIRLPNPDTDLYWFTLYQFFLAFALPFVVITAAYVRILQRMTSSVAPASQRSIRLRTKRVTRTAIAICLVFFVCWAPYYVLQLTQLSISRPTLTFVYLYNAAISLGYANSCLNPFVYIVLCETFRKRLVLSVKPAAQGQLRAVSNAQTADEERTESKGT

As usually defined, the inhibition is the share of the control response that was lost under treatment. For the compound `COc1cc(-n2ccc3oc(-c4ccc(Cl)cn4)cc3c2=O)ccc1OCC1(C#N)CC1` [Example 19, 1-((4-(2-(5-Chloropyridin-2-yl)-4-oxofuro[3,2-c]pyridin-5(4H)-yl)-2-methoxyphenoxy)methyl)cyclopropanecarbonitrile], the inhibition at 0.1 µM on human MCHR1 [1] is 88%; at human MCHR1 [2], 77%.

`COc1cc(-n2ccc3oc(-c4ccc(Cl)cc4)cc3c2=O)cnc1OCC1(C#N)CC1` [Example 23, 1-(((5-(2-(4-Chlorophenyl)-4-oxofuro[3,2-c]pyridin-5(4H)-yl)-3-methoxypyridin-2-yl)oxy)methyl)cyclopropanecarbonitrile]: the inhibition at 0.1 µM at human MCHR1 [1] was 72%; on human MCHR1 [2], 73%.

With `COc1cc(-n2ccc3oc(-c4ccc(OC(F)(F)F)cc4)cc3c2=O)ccc1OCC1(C#N)CC1` [Example 28, 1-((2-Methoxy-4-(4-oxo-2-(4-(trifluoromethoxy)phenyl)furo[3,2-c]pyridin-5(4H)-yl)phenoxy)methyl)cyclopropanecarbonitrile], the inhibition at 0.1 µM on human MCHR1 [1] was 24%; on human MCHR1 [2], 63%.

Turning to `Cc1cc(-n2ccc3oc(-c4ccc(Cl)cc4)cc3c2=O)ccc1OCC1(C#N)CC1` [Example 33, 1-((4-(2-(4-Chlorophenyl)-4-oxofuro[3,2-c]pyridin-5(4H)-yl)-2-methylphenoxy)methyl)cyclopropanecarbonitrile], the inhibition at 0.1 µM at human MCHR1 [1] was 34%; on human MCHR1 [2], 84%.

On to `COc1cc(-n2ccc3oc(-c4ccc(Cl)cc4)cc3c2=O)ccc1OCC1CCCO1` (centres unmarked) [Example 36, 2-(4-Chlorophenyl)-5-(3-methoxy-4-(tetrahydrofuran-2-ylmethoxy)phenyl)furo[3,2-c]pyridin-4(5H)-one], for which the inhibition at 0.1 µM on human MCHR1 [1] worked out at 78%; at human MCHR1 [2] it was 95%.

Consider `COc1cc(-n2ccc3oc(-c4ccc(Cl)cc4)cc3c2=O)ccc1OCC1CCOC1` (centres unmarked) [Example 39, 2-(4-Chlorophenyl)-5-(3-methoxy-4-(tetrahydrofuran-3-ylmethoxy)phenyl)furo[3,2-c]pyridin-4(5H)-one], for which the results for the inhibition at 0.1 µM at human MCHR1 [1] and on human MCHR1 [2] were 84% and 96%, respectively.

Consider `COc1cc(-n2ccc3oc(-c4ccc(Cl)cc4)cc3c2=O)ccc1OCC1COC1` [Example 40, 2-(4-Chlorophenyl)-5-(3-methoxy-4-(oxetan-3-ylmethoxy)phenyl)furo[3,2-c]pyridin-4(5H)-one], for which the inhibition at 0.1 µM on human MCHR1 [1] is 95%; at human MCHR1 [2], 91%.

With `COc1cc(-n2ccc3oc(-c4ccc(Cl)cc4)cc3c2=O)ccc1OCC1(C)COC1` [Example 41, 2-(4-Chlorophenyl)-5-(3-methoxy-4-((3-methyloxetan-3-yl)methoxy)phenyl)furo[3,2-c]pyridin-4(5H)-one], the inhibition at 0.1 µM at human MCHR1 [1] was found to be 92%; at human MCHR1 [2], 97%.

As for `COc1cc(-n2ccc3oc(-c4ccc(Cl)cc4)cc3c2=O)ccc1OCC1CCO1` (centres unmarked) [Example 43, 2-(4-Chlorophenyl)-5-(3-methoxy-4-(oxetan-2-ylmethoxy)phenyl)furo[3,2-c]pyridin-4(5H)-one], the results for the inhibition at 0.1 µM at human MCHR1 [1] and on human MCHR1 [2] were 99% and 92%, respectively.

On to `COc1cc(-n2ccc3oc(-c4ccc(Cl)cc4)cc3c2=O)ccc1OCC1CC1(F)F` (centres unmarked) [Example 44, 2-(4-Chlorophenyl)-5-(4-((2,2-difluorocyclopropyl)methoxy)-3-methoxyphenyl)furo[3,2-c]pyridin-4(5H)-one], for which the inhibition at 0.1 µM on human MCHR1 [1] was found to be 45%; at human MCHR1 [2], 85%.
